Experiment: DPPH free radical scavenging activity test
Format: biochemical
Settings: for DPPH free radical scavenge activity (%) (mean ± standard deviation): 0.2 mM DPPH 1:1, 30 min
Experimental: To evaluate the DPPH free radical scavenging activity of the biodegradable metal of the present invention, samples were provided to the Korea Testing & Research Institute and the test thereof was performed in a manner described below by the Korea Testing & Research Institute at the request of the inventors.
a. Test substance • Magnesium patch with a purity of 95% or more (See FIG. 1 in which the patch is provided with microneedles that are not bent). • The sample used for the test is a sheet shape (dimensions: 2.6 mm×2.4 mm, thickness 0.1 t) made of Mg with a purity of 95% or more and including unavoidable impurities generated during manufacturing thereof.
b. Positive control • L-ascorbic acid: Sigma-Aldrich Corporation, Lot No. SLBR2586V
c. Etc. • 2,2-Diphenyl-1-picrylhydrazyl (DPPH): Sigma-Aldrich Corporation, Lot No. STBH0044 • Methanol: JINSEI, Lot No. 2016G2012
a. Preparation of test substance: The provided test substance was used without conversion of purity. Methanol was used to adjust the concentration.
After weighing L-ascorbic acid, it was prepared to have a predetermined concentration using methanol.
DPPH was prepared to have a concentration of 0.2 mM using methanol.
In a 96-well plate, each of the preparations (test substance and positive control substance) having different concentrations was mixed with a combination of 0.2 mM DPPH and methanol in a mixing ratio of 1:1.
After reacting at room temperature for 30 minutes in a light-shielding state, centrifugation was performed to obtain a supernatant, and absorbance was measured at a wavelength of 517 nm.
The free radical scavenger activity (%) of DPPH was calculated using Equation 1 below.
DPPH radical scavenging activity(%)=1−(A/B)×100 <Equation 1>
In Equation 1, A is the absorbance of the test substance, and B is the absorbance of the blank sample.
The result of each test was measured three times to obtain the mean value and standard deviation, and statistical analysis was performed using the SPSS statistical program (Ver. 19.0). First, after performing Levene's test, a one-way ANOVA test was performed. When significance was confirmed among the test groups, a post-hoc test was performed depending on the presence or absence of homogeneity of variances (when the variances are homogeneous, Duncan's multiple test was performed whereas when the variances were heterogeneous, Dunnett's T3 was performed).

IC50 (concentration at which 50% activity is exhibited), DPPH scavenging (methanol solution): 0.0012%
SMILES: O=C1O[C@H]([C@@H](O)CO)C(O)=C1O [L-ascorbic acid]
DPPH free radical scavenge activity (%) (mean ± standard deviation) (concentration 0.0005%): 20.96%
DPPH free radical scavenge activity (%) (mean ± standard deviation) (concentration 0.001%): 40.38%
DPPH free radical scavenge activity (%) (mean ± standard deviation) (concentration 0.0015%): 65.57%
DPPH free radical scavenge activity (%) (mean ± standard deviation) (concentration 0.002%): 83.24%

Reference: US20220168193A1, “FLEXIBLE METAL PATCH HAVING ANTIOXIDANT ACTIVITY AND BRIGHTENING EFFECT AND METHOD FOR USING SAME” (LABNPEOPLE CO., LTD., priority 2019, published 2022)
